Read-outs that look alike come from different tables or passages of the source.
Columns and labels:
A375 cells = assay: A375 proliferation assay (Cell TiterGlo); format: cell-based; details: Homo sapiens, A-375, 72 hours
Protocol: Mechanism of Action (MOA) Cell Assay—A375 Cell Proliferation, pERK/ERK and pRSK/RSK Analysis:
Briefly, A375 cells were plated at 10,000 cells/well in three 96 well plates. Plates were incubated overnight at 37° C. and allowed to recover. Cells were washed with 150 μL of DPBS and 90 μL of fresh media was added to each well. The cells were then treated with a dose response of the selected compounds. Compounds were diluted from stock concentrations (10 mM in DMSO). Serial dilutions were made in DMSO, yielding 8 total different concentrations per compound. At time of compound addition, the control plate was analyzed using Cell TiterGlo to set baseline for proliferation. Compound treated cells were allowed to grow at 37° C./5% CO2 for 72 hours then analyzed using Cell TiterGlo according to kit protocol.

pRSK/RSK in A375 cells = assay: A375 pRSK/RSK dose response study (ELISA); format: cell-based; details: Homo sapiens, A-375, pRSK and total RSK ELISA
Protocol: A375 pRSK/RSK Dose Response Study
Briefly, A375 cells were plated at 30,000 cells/well in 2×96 well plates, allowed to recover overnight, washed and fed fresh media the next day then treated with a dose response of the selected compounds. Following the determined pretreatment with the compounds at 37° C./5% CO2 the media was aspirated, and cells lysed with cold, complete MSD lysis buffer. pRSK and total RSK were analyzed using CST/PathScan pRSK and total RSK ELISAS according to the respective kit protocols. All samples were analyzed at 90% of remaining sample in pRSK and 10% of remaining sample in total RSK ELISA, which was performed following kit protocols.

CYP1A2 = target: T1, CYP1A2 (Homo sapiens, UniProt P05177); assay: In-vitro CYP inhibition study, CYP1A2; format: in vitro ADME; details: human liver microsomes, substrate Phenacetin (90 μM)
T1 construct: from tissue; host or cells: human liver microsomes, mixed-gender pool of 200
T1 sequence (P05177 1-516): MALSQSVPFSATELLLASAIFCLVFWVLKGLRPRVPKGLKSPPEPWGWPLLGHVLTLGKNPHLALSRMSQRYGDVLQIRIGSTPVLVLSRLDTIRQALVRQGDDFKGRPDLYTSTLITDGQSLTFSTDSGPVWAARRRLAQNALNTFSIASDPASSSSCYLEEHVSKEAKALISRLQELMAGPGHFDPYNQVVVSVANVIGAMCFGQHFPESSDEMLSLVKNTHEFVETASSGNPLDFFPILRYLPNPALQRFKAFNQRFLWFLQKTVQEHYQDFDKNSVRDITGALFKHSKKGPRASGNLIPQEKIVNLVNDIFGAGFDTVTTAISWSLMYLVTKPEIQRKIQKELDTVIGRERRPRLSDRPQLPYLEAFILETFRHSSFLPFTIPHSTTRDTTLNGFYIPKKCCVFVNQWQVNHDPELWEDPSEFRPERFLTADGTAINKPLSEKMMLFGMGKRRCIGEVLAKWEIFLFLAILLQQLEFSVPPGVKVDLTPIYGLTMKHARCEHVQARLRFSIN
Protocol: (§1) Incubations were conducted using a cocktail of seven prototypical CYP substrates to ascertain the potential of each test article to inhibit the metabolism of concomitantly administered drugs. A mixed-gender pool of 200 human liver microsomal samples was used for this study. Incubations were conducted at approximately 37° C. in 200 μL incubation mixtures (pH 7.4) containing water, potassium phosphate buffer (50 mM), MgCl2 (3 mM), EDTA (1 mM), an NADPH regenerating system (NADP [1 mM], glucose 6 phosphate [5 mM], glucose 6 phosphate dehydrogenase [1 Unit/mL]), and probe substrate (i.e., a seven substrate cocktail) at the final concentrations indicated in Table 9. Reactions were initiated by the addition of NADPH-regenerating system and were automatically terminated at approximately 5 minutes by the addition of internal standard mixed in stop reagent, acetonitrile. The samples were centrifuged at 920×g for 10 minutes at 10° C. The supernatant fractions were analyzed by LC-MS/MS. To examine its ability to act as a time-dependent inhibitor of CYP enzymes, each test article (at the same concentrations used to evaluate direct inhibition, (i.e. 0, 0.02, 0.06, 0.2, 0.6, 2, 6, 20 μM) was pre-incubated at 37±2° C. with NADPH-fortified human liver microsomes for approximately 30 minutes. The pre-incubations were initiated by the addition of NADPH-regenerating system. After 30 min, probe substrate incubations were initiated by the addition of probe substrate cocktail. Incubations were terminated and samples were analyzed by LC-MS/MS. When inhibition was observed, the data were processed with a LIMS for the determination of IC50 values by utilizing the Levenberg-Marquardt algorithm to perform non-linear regression fitting of the data to the following 4-parameter sigmoidal-logistic IC50 equation:
(§2) As percent of control values are utilized, the minimum value (Min) is set to zero and the maximum value (Max) is set to 100 (or other values, as appropriate). The LIMS calculates an IC50 value only when it lies within the concentration range of the inhibitor studied. Therefore, when an IC50 value falls outside the concentration range studied, the IC50 values are reported to be greater than the highest concentration of the test article evaluated.

CYP2C8 = target: T2, CYP2C8 (Homo sapiens, UniProt P10632); assay: In-vitro CYP inhibition study, CYP2C8; format: in vitro ADME; details: human liver microsomes, substrate Paclitaxel (5 μM)
T2 construct: from tissue; host or cells: human liver microsomes, mixed-gender pool of 200
T2 sequence (P10632 1-490): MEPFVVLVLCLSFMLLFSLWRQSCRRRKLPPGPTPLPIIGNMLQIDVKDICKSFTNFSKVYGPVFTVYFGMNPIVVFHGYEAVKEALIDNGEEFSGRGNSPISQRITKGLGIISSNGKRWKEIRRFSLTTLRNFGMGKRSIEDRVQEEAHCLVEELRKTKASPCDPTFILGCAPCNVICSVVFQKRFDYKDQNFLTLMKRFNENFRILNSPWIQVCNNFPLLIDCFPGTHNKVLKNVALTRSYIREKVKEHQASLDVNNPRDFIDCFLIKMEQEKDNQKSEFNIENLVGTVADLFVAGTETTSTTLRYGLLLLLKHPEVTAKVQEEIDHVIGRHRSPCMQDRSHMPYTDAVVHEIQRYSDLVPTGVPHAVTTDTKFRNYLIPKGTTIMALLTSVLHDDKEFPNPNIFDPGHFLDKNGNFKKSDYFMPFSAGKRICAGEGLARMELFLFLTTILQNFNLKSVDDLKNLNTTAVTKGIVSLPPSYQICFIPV
Protocol: as §1, §2

CYP2D6 = target: T3, CYP2D6 (Homo sapiens, UniProt P10635); assay: In-vitro CYP inhibition study, CYP2D6; format: in vitro ADME; details: human liver microsomes, substrate Dextramethorphan (10 μM)
T3 construct: from tissue; host or cells: human liver microsomes, mixed-gender pool of 200
Protocol: as §1, §2

CYP2B6 mRNA expression = details: human, hepatocytes, 24 h
Protocol: A single preparation of characterized cryopreserved human hepatocytes isolated from non-transplantable human livers was treated in this study. Triplicate wells for each of the cultures were treated in 48-well plates with supplemented MCM (37±2° C.) containing 0.1% v/v DMSO (solvent control), one of three concentrations of each test article (1, 10 and 20 μM) or positive control CYP enzyme inducers omeprazole (50 μM), phenobarbital (1000 μM) or rifampin (20 μM). The cultures were incubated in a humidified culture chamber (37±2° C. at 95% relative humidity, 95/5% air/CO2). Approximately 24 h after treatment, hepatocytes were lysed in Buffer RLT reagent containing β-mercaptoethanol (100:1). The medium was aspirated, and Buffer RLT was added to each well. The cell lysates were prepared by repeated pipetting and shaking. Total RNA was isolated using the RNeasy Mini Kit. RNA quality and concentration were determined by measuring absorbance at 260 and 280 nm on a plate reader. Single-stranded cDNA was prepared from RNA with the RT Master Mix. The RT Master Mix comprises 10×RT buffer, 25× deoxyNTPs, 10× Random primers, RNase Inhibitor (20 U/μL), MultiScribe reverse transcriptase (50 U/μL) and RNase-free water. The RT Master Mix was added to each RNA sample to complete the components of the reaction. No template controls (NTCs) were included in the analysis. For the NTC reactions, RNase-free water was added in place of the RNA sample. The prepared cDNA samples were stored at −20±5° C. following analysis by qRT-PCR. Each PCR was performed in quadruplicate. A Primer Mix was prepared for each Gene Expression assay. A typical Primer Mix contained TaqMan Fast Advanced Master Mix (1×), Gene Expression Assay (1×, 900 nM forward and reverse primers) and RNase-free water. The Reaction Mix was prepared by adding the Primer Mix to cDNA. A percentage of samples (no less than 10%) included NAC (no amplification control) samples. […] Reactions were analyzed on a PCR sequence detection system. The relative quantity of the target cDNA compared with that of the control cDNA (GAPDH) was determined by the ΔΔCt method. Relative quantitation measures the change in mRNA expression in a test sample relative to that in a control sample (e.g., DMSO). This method assumes that the efficiency of the target amplification and the efficiency of the endogenous control amplification are approximately equal.

T3 sequence (P10635 whole entry): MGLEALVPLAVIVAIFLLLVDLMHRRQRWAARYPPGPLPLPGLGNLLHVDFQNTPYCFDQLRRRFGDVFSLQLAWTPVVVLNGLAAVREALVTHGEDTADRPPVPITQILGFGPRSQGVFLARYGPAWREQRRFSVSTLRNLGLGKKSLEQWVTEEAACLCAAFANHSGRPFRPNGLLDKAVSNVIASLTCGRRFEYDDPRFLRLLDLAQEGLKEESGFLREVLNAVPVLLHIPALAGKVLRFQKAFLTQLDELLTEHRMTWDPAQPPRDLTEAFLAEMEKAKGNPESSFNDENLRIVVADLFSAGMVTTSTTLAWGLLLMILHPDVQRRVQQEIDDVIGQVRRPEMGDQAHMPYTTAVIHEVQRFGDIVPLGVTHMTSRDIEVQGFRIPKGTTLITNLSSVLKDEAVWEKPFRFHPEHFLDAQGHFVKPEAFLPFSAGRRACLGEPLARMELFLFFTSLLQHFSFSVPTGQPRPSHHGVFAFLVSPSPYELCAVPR

Row | IC50 (A375 cells) [µM] | IC50 (pRSK/RSK in A375 cells) [µM] | IC50 (CYP1A2; preincubation 0 min) [µM] | IC50 (CYP1A2; preincubation 30 min) [µM] | IC50 (CYP2C8; preincubation 0 min) [µM] | IC50 (CYP2C8; preincubation 30 min) [µM] | IC50 (CYP2D6; preincubation 0 min) [µM] | IC50 (CYP2D6; preincubation 30 min) [µM] | Fold Change in mRNA Expression of CYP2B6 (CYP2B6 mRNA expression; 1 μM) [fold] | Fold Change in mRNA Expression of CYP2B6 (CYP2B6 mRNA expression; 10 μM) [fold] | IC50 at 5 min (CYP2D6; both sexes, human, pH 7.4, probe Dextramethorphan (10 μM), preincubation 0 min) [µM] | SMILES
1 | 0.3 | 0.04 | > 20 | 17 | 9.6 | 11 | > 20 | 19 | 1.36 | 1.90 |  | [2H]C([2H])([2H])C([2H])(Nc1cc(-c2c[nH]c(C(=O)N[C@H](CO)c3cccc(Cl)c3)c2)c(Cl)cn1)C([2H])([2H])[2H] [Formula 18, 4-(5-chloro-2-((propan-2-yl-d7)amino)pyridin-4-yl)-N-(1-(3-chlorophenyl)-2-hydroxyethyl)-1H-pyrrole-2-carboxamide]
2 |  |  | > 20 | 19 | 10 | 12 |  | > 20 | 1.47 | 2.10 | 20 | [2H]C([2H])([2H])C(Nc1cc(-c2c[nH]c(C(=O)N[C@H](CO)c3cccc(Cl)c3)c2)c(Cl)cn1)C([2H])([2H])[2H] [Formula 19, 4-(5-chloro-2-((propan-2-yl-1,1,1,3,3,3-d6)amino)pyridin-4-yl)-N-(1-(3-chiorophenyl)-2-hydroxyethyl)-1H-pyrrole-2-carboxamide]
3 |  |  | > 20 | > 20 | 19 | 19 | > 20 | > 20 | 1.08 | 2.04 |  | Cl.[2H]C(C)(C)Nc1cc(-c2c[nH]c(C(=O)N[C@H](CO)c3cccc(Cl)c3)c2)c(Cl)cn1 [Formula 21A]
4 | 0.25 | 0.037 | > 20 | 13 | 8.5 | 9.2 | > 20 | 18 | 1.25 | 1.99 |  | CC(C)Nc1cc(-c2c[nH]c(C(=O)N[C@H](CO)c3cccc(Cl)c3)c2)c(Cl)cn1 [Ulixertinib, reference compound]
